Literature values in article PMC3461233 (Angewandte Chemie (International ed. in English), 2012).

- spontaneous translocation across synthetic membranes: does not translocate spontaneously
Substance: Arg9
